Experimental data as given in PubChem BioAssay AID504779 (National Center for Advancing Translational Sciences (NCATS), 2011).

System: Caco-2 bidirectional permeability, LC-MS/MS efflux ratio
Experiment: Enhancers of SMN2 Splice Variant Expression: Efflux Ratio Profiling
Settings: hits give low values
Source text: Spinal muscular atrophy (SMA) is caused by insufficient levels of the survival motor neuron protein SMN. The SMN locus on chromosome 5q13 contains two inverted copies of SMN called SMN1 and SMN2 which are 99% identical at the amino acid level. SMN1 is a fully functional protein and SMN2 skips exon 7 90% of the time. Skipping of exon 7 produces non-functional protein product. 10% of the SMN2 protein includes exon 7 and is fully functional. In the SMA disease state, mutations in the SMN1 locus are the cause of the disease state. Because only 10% of SMN2 is of the fully functional form, it is not sufficient to overcome the deficiency produced by the loss of the SMN1 product. A therapy that either increase the amount of SMN2 product made or to increase the inclusion of exon 7 has been proposed for the treatment of SMA. After screening and medicinal chemistry efforts a probe was identified and is further characterized in this in vitro ADME assay. This bioassays provides profiling data on Caco-2 cell permeability of leads compounds developed for the HPGD project. […]
Prepare 1M HEPES: add 23.83g HEPES to 100ml of 0.85% NaCl Prepare HBSS+ buffer: add 12.8ml of 1M HEPES in 0.85% NaCl to 500ml HBSS buffer. […] The T0, LY and T90, LY plates are read by FlexStation 3 at excitation of 485 nm and emission of 535 nm to determine LY permeability. […]

efflux ratio: 0.4
Structure (SMILES): O=C(O)C1CCN(c2nc(-c3ccc(Br)cc3)cs2)CC1
